The record followed here is paper PMC8877094, “Antiparasitic Ovalicin Derivatives from Pseudallescheria boydii, a Mutualistic Fungus of French Guiana Termites” (Molecules, 2022).

Where two headings read alike, the source gives them in different places.

Common to all, as to assay type: cell-based
For test [1], the system named is Human umbilical vein endothelial cells (HUVECs). Briefly: Cytotoxic assay on HUVECs (CellTiter-Blue). The following applies: HUVEC, read-out: HUVECs (IC50 µM). On the procedure:
Human umbilical vein endothelial cells (HUVECs) were obtained from Clonetics (Lonza; Walkersville, MD, USA) and cultured according to the supplier’s instructions. Briefly, HUVECs from three to six passages were subcultured to confluence onto 0.2% gelatin-coated tissue culture flasks in endothelial cell growth medium (EGM2) containing growth factors and 2% FCS. All cell lines were maintained at 37 °C in a humidified atmosphere containing 5% CO2. Cell viability was assessed using Promega (Promega France, Charbonnière-les-Bains, France) CellTiter-BlueTM reagent according to the manufacturer’s instructions. Cells were seeded in 96-well plates (5 × 10^3 cells per well) containing […] growth medium. After 24 h of culture, the cells were supplemented with […] of test compound dissolved in DMSO (<0.1% in each preparation). After incubation for 72 h, […] resazurin was added for 2 h before recording fluorescence (λex = 560 nm, λem = 590 nm) using a Victor microtiter plate fluorimeter (PerkinElmer France, Villebon-sur-Yvette, France). IC50 values correspond to the concentration of test compound that elicited a 50% decrease in fluorescence for drug-treated cells relative to untreated cells. Experiments were performed in triplicate.
Background: Alamar Blue is a resazurin reagent that responds to reducing activity.

For test [2], the system named is Plasmodium falciparum FcB1/Colombia strain. Description: In vitro growth inhibition of chloroquine-resistant P. falciparum ([3H]-hypoxanthine incorporation). Particulars: FCB1, Erythrocyte, 48 h. On the procedure:
The FcB1/Colombian strain of Plasmodium falciparum was maintained in vitro in human erythrocytes in an RPMI 1640 reaction mixture supplemented with 8% (v/v) heat-inactivated human serum at 37 °C under an atmosphere of 3% CO2, 6% O2, and 91% N2. The chloroquine-resistant strain FcB1/Colombia of Plasmodium falciparum was obtained from the National Museum Natural History collection, Paris, France (n°MNHN-CEU-224-PfFCB1). Parasites were maintained in vitro on human A+ erythrocytes in RPMI 1640 medium supplemented by 8% (v/v) heat-inactivated human serum at 37 °C under an atmosphere of 3% CO2, 6% O2, and 91% N2. Human red blood cells and serum were provided by the Etablissement Français du Sang, Ile de France (EFS, Paris, France) under the C-CPSL-UNT approval n°13/EFS/126. In vitro drug susceptibility assays were measured by [^3H]-hypoxanthine incorporation as described previously. Drug solutions were prepared in DMSO at a 10 mM concentration. Compounds were serially diluted 2-fold with 100 μL culture medium in 96-well plates. Asynchronous parasite cultures (100 μL, 1% parasitemia and 1% final hematocrit) were then added to each well and incubated for 24 h at 37 °C prior to the addition of 0.5 μCi of [^3H]-hypoxanthine (GE Healthcare, Tremblay-en-France, France, 1 to 5 Ci·mmol/mL) per well. After a further incubation of 24 h, plates were frozen and thawed. Cell lysates were then collected onto fiberglass filters and counted in a liquid scintillation spectrometer. The growth inhibition for each drug concentration was determined by comparison of the radioactivity incorporated in the treated culture with that in the control culture maintained on the same plate. The concentration causing 50% growth inhibition (IC50) was obtained from the drug concentration–response curve, and the results are expressed as the mean values ± standard deviations determined from several independent experiments.

Test [3] has as its system Trypanosoma brucei brucei strain 93 bloodstream forms. Briefly: In vitro inhibition of T. brucei brucei growth (AlamarBlue/resazurin). The following applies: bloodstream forms strain 93, 72 h incubation + 4 h resazurin, mean ± SD of three independent experiments. How it is done:
Bloodstream forms of Trypanosoma brucei brucei strain 93 were cultured in HMI9 medium supplemented with 10% FCS at 37 °C under an atmosphere of 5% CO2. In all experiments, log-phage cell cultures were harvested by centrifugation at 3000× g and immediately used. Drug assays were based on the conversion of a redox-sensitive dye (resazurin) to a fluorescent product by viable cells and were performed according to the manufacturer recommendations (AlamarBlue® Assay, Invitrogen Corporation, Carlsbad, CA, USA). Drug stock solutions were prepared in pure DMSO. […] After a 72 h incubation, resazurin solution was added to each well at with a final concentration of 45 μM. Fluorescence was measured at 530 nm excitation and 590 nm emission wavelengths after a further 4 h incubation. The percentage of inhibition of the parasite growth rate was calculated by comparing the fluorescence of parasites maintained in the presence of drug with that in the absence of drug. DMSO was used as control. […] IC50s were determined from the dose–response curves with drug concentrations ranging from 100 μM to 50 nM. The IC50 value is the mean ± the standard deviation of three independent experiments.

Setting [4] is: cell viability, 72 h incubation, CellTiter-Blue, triplicate.
Setting [5] is: chloroquine-resistant FcB1/Colombia strain, human erythrocytes, 24 h + 24 h with [3H]-hypoxanthine, mean ± SD, read-out: P. falciparum (IC50 µM).

Regarding `CO[C@@H]1C(=O)CC[C@]2(CO2)[C@@]1(O)[C@@]1(C)O[C@@H]1CC=C(C)C` [Compound 1, Ovalicin], the IC50 in test [1] (setting [4]) is 13 ± 2 µM; in test [2] (read-out: P. falciparum (IC50 µM), chloroquine-resistant FcB1/Colombia strain, human erythrocytes, 24 h + 24 h with [3H]-hypoxanthine, mean ± SD), below 20.6 µM.

Consider `CCCCC/C=C\C/C=C\CCCCCCCC(=O)OC[C@@]1(O)CCC(=O)[C@@H](OC)[C@]1(O)[C@@]1(C)O[C@@H]1CC=C(C)C` [Compound 2, Ovalicin linoleate], for which the figures for the IC50 in test [1] (setting [4]), in test [3] (72 h) and in test [2] (setting [5]) were 37 ± 3 µM, below 1.1 µM and below 20.6 µM, respectively.

`CCCCCCCC/C=C\CCCCCCCC(=O)OC[C@@]1(O)CCC(=O)[C@@H](OC)[C@]1(O)[C@@]1(C)O[C@@H]1CC=C(C)C` [Compound 3, Ovalicin oleate]: the IC50 was 45 ± 2 µM in test [1] (setting [4]), 4.8 ± 2.7 µM in test [3] (72 h) and above 50 µM in test [2] (setting [5]).

On to `CCCCCCCCCCCCCCCCCC(=O)OC[C@@]1(O)CCC(=O)[C@@H](OC)[C@]1(O)[C@@]1(C)O[C@@H]1CC=C(C)C` [Compound 4], for which the IC50 in test [1] (setting [4]) was 70 ± 1 µM; in test [3] (72 h), 4.1 ± 2.1 µM; in test [2] (setting [5]), below 20.6 µM.

As to `CO[C@@H]1[C@H](OC(=O)/C=C/C=C/C=C/C=C/C(=O)O)CC[C@]2(CO2)[C@H]1[C@@]1(C)O[C@@H]1CC=C(C)C` [Fumagillin, reference compound], the IC50 in test [1] (72 h) was determined as 0.006 ± 0.002 µM.

In the case of `N=C(N)c1ccc(OCCCCCOc2ccc(C(=N)N)cc2)cc1` [Pentamidine, reference compound], in test [3], the IC50 was determined as 0.011 ± 0.0017 µM.
